Data taken from article PMC12030165, “Bioactivity of Synthesized Trifluoromethyl Thioxanthone Analogues” (Pharmaceuticals, 2025).

Key:
[1] = biological target: T1, porcine pancreatic lipase (Sus scrofa, UniProt P00591); experiment: Inhibition assay of pancreatic lipase enzyme (PNPB); assay type: biochemical
T1 construct: purchased Sigma-Aldrich (Missouri, MO, USA)
T1 sequence (P00591 1-450): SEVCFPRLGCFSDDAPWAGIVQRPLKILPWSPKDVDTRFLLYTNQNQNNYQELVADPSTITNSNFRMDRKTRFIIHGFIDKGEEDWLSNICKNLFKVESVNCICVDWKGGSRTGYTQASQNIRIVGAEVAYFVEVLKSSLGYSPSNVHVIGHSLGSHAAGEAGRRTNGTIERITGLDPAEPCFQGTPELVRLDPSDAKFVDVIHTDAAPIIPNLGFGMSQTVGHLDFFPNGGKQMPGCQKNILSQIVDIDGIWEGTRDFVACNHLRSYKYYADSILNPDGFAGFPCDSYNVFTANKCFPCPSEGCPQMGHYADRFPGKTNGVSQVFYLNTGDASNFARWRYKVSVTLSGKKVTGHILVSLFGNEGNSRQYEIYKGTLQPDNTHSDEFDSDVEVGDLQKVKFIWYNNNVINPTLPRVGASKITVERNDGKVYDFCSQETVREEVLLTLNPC
Procedure: A stock solution of 1 mg/mL (1000 μg/mL) was prepared for each product using 10% DMSO. This stock solution created […] different concentrations at 20, 50, and 70 μg/mL. A fresh stock solution of pancreatic lipase enzyme was prepared immediately before use. […] In the experiment, 0.1 mL of the 1 mg/mL porcine pancreatic lipase solution was added to test tubes containing 0.2 mL of each of the various concentrations of the products. The mixtures were then brought to a final volume of 1 mL by adding a Tris-HCl solution (pH 7.4) and were incubated at 25 °C for 15 min. After the incubation period, 0.1 mL of the PNPB solution was added to each test tube, and the mixtures were incubated again for 30 min at 37 °C. The activity of pancreatic lipase was measured by assessing the hydrolysis of p-nitrophenyl butyrate to p-nitrophenol at a wavelength of 410 nm using a UV-visible spectrophotometer.

HeLa cells = experiment: Cytotoxicity (MTS) against HeLa cells; assay type: cell-based; settings: for IC50: Homo sapiens, HeLa, concentration range 100–20,000 nM, read-out: IC50 of inhibition activity against Hela cells
Procedure: RPMI-1640 medium was used to culture cervical adenocarcinoma (HeLa) cancer cells, supplemented with 10% fetal bovine serum, 1% penicillin/streptomycin, and 1% L-glutamine. The HeLa cells were grown in a humidified environment at 37 °C with a 5% CO2 atmosphere. A 96-well plate was employed for seeding the cells at a density of 2.6 × 10^4 cells per well. Following a 24-h incubation, the cells were treated with various concentrations of the tested (AO) fractions. Cell viability was assessed using the Cell Titer 96® Aqueous One Solution Cell Proliferation (MTS) assay, following the manufacturer’s instructions (Promega Corporation, Wisconsin, WI, USA). Briefly, at the end of the treatment, 20 µL of MTS solution was added to each well containing 100 µL of media, and the cells were incubated at 37 °C for 2 h. The absorbance was measured using a UV-visible spectrophotometer at a wavelength of 490 nm.

| Compound | IC50 [1] [µM] | % toxicity against HeLa cells (HeLa cells; 200 nM) [%] | IC50 (HeLa cells) [µM] |
| --- | --- | --- | --- |
| OC1(c2ccccc2)c2ccccc2Sc2ccc(C(F)(F)F)cc21 (stereo not drawn) [Compound 1, 9-phenyl-2-(trifluoromethyl)-9H-thioxanthen-9-ol] | 176 | 93.18 | 0.0878 |
| OC1(Cc2ccccc2)c2ccccc2Sc2ccc(C(F)(F)F)cc21 (stereo not drawn) [Compound 2, 9-benzyl-2-(trifluoromethyl)-9H-thioxanthen-9-ol] | 111 ± 7.5 | – | 0.169 |
| S-(9-benzyl-2-(trifluoromethyl)-9H-thioxanthen-9-yl)-L-cysteine [Compound 3] | 277 | – | – |
